For assay [1], the system named is TGase I (keratinocyte transglutaminase level). Put plainly: Transglutaminase (TGase I) ELISA assay (keratinocyte differentiation). Format: cell-based, human. The settings on record: for activity at 0.1 µM / mean TGase level ± s.d: 72 h, ROH 2.5 × 10^-7 M; for effect on keratinocyte TG1 levels / differentiation, in words: concentrations as in the respective Example. How it is done:
(§1) Human keratinocytes, isolated from neonatal foreskin by trypsin treatment were grown in Dulbecco Modification Eagle (DME) Hams F12 (1:1) medium/10% fetal calf serum in the presence of irradiated 3T3 mouse fibroblasts for establishing dividing keratinocyte colonies. Cells were grown under the above condition until their second passage and kept frozen for future use. […] On day 7, when the cells were 80-90% confluent, they were trypsinized and plated in the serum-free medium for the various experiments.
During the process of terminal differentiation in the epidermis, a 15 nm thick layer of protein, known as the cornified envelope (CE) is formed on the inner surface of the cell periphery. The CE is composed of numerous distinct proteins which have been cross-linked together by the formation of N^ε -(γ-glutamyl) lysine isodipeptide bonds catalyzed by the action of at least two different transglutaminases (TGases) expressed in the epidermis. TGase I is expressed in abundance in the differentiated layers of the epidermis, especially the granular layer, but is absent in the undifferentiated basal epidermis. Thus TGase I is a useful marker of epidermal keratinocyte differentiation with high TGase I levels indicating a more differentiated state. An ELISA based TGase I assay, using a TGase I antibody, was used to assess the state of differentiation of the cultured keratinocytes in the examples that follow.
Keratinocytes (cultured as described above) were plated in 96 well plates at a density of 3,000 cells per well in 200 μl media. After incubation for four days the media was changed to media containing test compounds (six replicates per test). The cells were cultured for a further 72 hours after which time the media was aspirated and the plates stored at -70° C. Plates were removed from the freezer, and the cells washed with PBS. 100 μl sterile water was added and the cells were freeze fractured by freezing at -70° C. then thawing. The cells were incubated for one hour at room temperature (R/T) with PBS/3% BSA (wash buffer, bovine serum albumin), then rinsed with a fresh aliquot of wash buffer. Cells were incubated with 50 μl of primary antibodies monoclonal anti-human transglutaminase (IgG) obtained from Amersham (mouse) diluted 1:300 in wash buffer for one hour, 37° C. then rinsed two times with wash buffer. Cells were then incubated with 50 μl of secondary antibody (Feb fragment, peroxidase conjugated anti-mouse IgG obtaining from Amersham) diluted 1:200 in wash buffer for one hour at 37° C., then rinsed two times with wash buffer. Cells were incubated with substrate solution (4 mg o-phenylene diamine and 3.3 μl 30% H2 O2 in 10 ml 0.1M citrate buffer pH 5.0) for five minutes, R/T, in darkness (under aluminum foil). The reaction was stopped by the addition of 50 μl 4N H2 SO4. The absorbance of samples was read at 492 nm in the plate reader. Out of the six replicates, four were treated with both antibodies, two were treated only with the secondary antibody (i.e., to determine background binding of enzyme conjugated Ab). TGase levels were determined by subtracting background from the readings from each treatment and determining mean ±s.d. for the replicates exposed to both Ab.
(In general: In an ELISA, binding on a coated surface is turned into a signal by an enzyme label.)

Another assay concerns Human keratinocytes. Put plainly: 3H-Thymidine incorporation (keratinocyte proliferation). Format: cell-based. The settings on record: for effect on keratinocyte proliferation, in words: concentrations as in the respective Example; for activity at 0.001 µM: Table 4D, ROH 2.5 × 10^-8 M, linoleoyl-MEA 10^-9 M; for activity at 0.001 µM / activity at 1 µM: RA; for activity at 1 µM: Table 4C, retinol 2.5 × 10^-8 M, palmitoyl-MEA 10^-6 M. The protocol: as §1
The incorporation of […] by cultured keratinocytes was used as an assay of keratinocyte proliferation. Thymidine is one of four deoxynucleosides which are the monomeric units of DNA, the universal library of genetic information in the animal kingdom. Prior to cell division of a somatic cell such as a keratinocyte, the complete genome of the cell undergoing cell division is replicated. This involves large scale DNA synthesis by the cell and enables both daughter cells to receive identical copies of the genetic material. When ^3 H-thymidine is included in the culture media of keratinocytes which are synthesizing DNA in preparation for cell division then the labelled nucleoside is incorporated into the newly synthesized DNA. The extent of incorporation of ^3 H-thymidine into a population of cells is proportional to the rate of DNA synthesis by this population of cells and therefore an indication of their cellular proliferation.
Keratinocytes (that were cultured as described above) were plated in 24 well plates at a density of 40,000 cells per well in 1 ml media. After incubation for four days or until the cells were 60-70% confluent, the media was changed. Test compounds were added (in triplicate) to the wells 24 hours after the media change, and four hours later 1μCi^3 H-Thymidine in 50 μl media was added per well. Cells were incubated for a further 24 hours. Media was removed from the cells, 10% ice cold trichloroacetic acid (TCA) added and plates were incubated on ice for 30 minutes. Cells were washed five times with 5% TCA and allowed to dissolve in 500 μl 0.1M NaOH for at least one hour (usually overnight). The preparations were neutralized with 0.1M HCl; 50 μl of the cell preparation was used to determine total protein content. Disintegrations per minute (DPM) from ^3 H labelling of DNA was determined by liquid scintillation counting of […] of the cell preparation. Thymidine incorporation results were expressed as DPM/μg protein.
A general note: Uptake of a labelled nucleoside into DNA is a usual measure of proliferation.

Like-named read-outs stand apart in the source and are kept apart here. Where only a bound is given, the exact number is not on record here.

In the case of `CC(N)=O` [Acetamide (C2), acetamide], in assay [1] (Homo sapiens, Keratinocyte, Table 6B, RA, acetamide 10^-7 M, alone or combined, n = 3, read-out: TGase (TG1) level, % control), the activity at 0.1 µM stood at 98%. For the same compound, the “mean TGase level ± s.d” value in assay [1] (Table 6B (Effect on Keratinocyte TGase), RA, acetamide 10^-7 M, alone or combined, n = 3) is reported as 0.480 ± 0.042. For the same compound, the “effect on keratinocyte TG1 levels / differentiation, in words” value in assay [1] is on record as “no effect on keratinocyte TG1 levels”.

Regarding `NC=O` [Formamide (C1), formamide], the activity at 0.1 µM in assay [1] (Homo sapiens, Keratinocyte, Table 6A, RA, formamide 10^-7 M, alone or combined, n = 3, read-out: TGase (TG1) level, % control) was 85%. Moreover, in assay [1] (Table 6A (Effect on Keratinocyte TGase), RA, formamide 10^-7 M, alone or combined, n = 3), the “mean TGase level ± s.d” value was 0.413 ± 0.069. The “effect on keratinocyte TG1 levels / differentiation, in words” value in assay [1] was “small inhibitory effect on keratinocyte TG1 levels”.

On to `CCCCC/C=C\C/C=C\CCCCCCCC(=O)O` [Linoleic acid (LA), Linoleic acid], for which the activity at 1 µM in assay [1] (Homo sapiens, Keratinocyte, Table 5A, RA, retinol 2.5 × 10^-7 M, linoleic acid 10^-6 M, alone or combined, n = 3, read-out: TGase (TG1) level, % control) is > 100%. In assay [1] (Table 5A, RA, retinol 2.5 × 10^-7 M, linoleic acid 10^-6 M, alone or combined, n = 3), the “mean TGase ± s.d” value is given as 0.161 ± 0.061. In addition, in assay [1], the “effect on keratinocyte TG1 levels / differentiation, in words” value was “appeared to stimulate TG1”.

Turning to `CCCCC/C=C\C/C=C\CCCCCCCC(=O)OC` [Methyl linoleate, methyl linoleate], the activity at 0.01 µM in assay [1] (Homo sapiens, Keratinocyte, Table 5B, RA, retinol 2.5 × 10^-8 M, methyl linoleate 10^-8 M, alone or combined, n = 3, read-out: TGase (TG1) level, % control) was 67%. Also, in assay [1] (Table 5B, RA, retinol 2.5 × 10^-8 M, methyl linoleate 10^-8 M, alone or combined, n = 3), the “mean TGase ± s.d” value was 0.193 ± 0.033. The “effect on keratinocyte TG1 levels / differentiation, in words” value in assay [1] is given as “repressed TG1 to the same extent as 2.5×10^-8 M retinol”.

Take `CCCCC(=O)N(CCO)CCO` [Pentanoyl-DEA (C5-DEA)]: the activity at 0.1 µM in assay [1] (Homo sapiens, Keratinocyte, Table 6C, RA, pentanoyl-DEA 10^-7 M, alone or combined, n = 3, read-out: TGase (TG1) level, % control) is 99%. Further, the “mean TGase level ± s.d” value in assay [1] (Table 6C (Effect on Keratinocyte TGase), RA, pentanoyl-DEA 10^-7 M, alone or combined, n = 3) turned out to be 0.425 ± 0.079. In addition, the “effect on keratinocyte TG1 levels / differentiation, in words” value in assay [1] was “no effect on keratinocyte TG1 levels”.

Consider `CCCCCCCCCCCCCCCC(=O)OC/C=C(C)/C=C/C=C(C)/C=C/C1=C(C)CCCC1(C)C` [RP, retinyl palmitate], for which the activity at 0.25 µM in assay [1] (Homo sapiens, Keratinocyte, Table 3B, RA, RP 2.5 × 10^-7 M, linoleoyl-DEA 10^-6 M, alone or combined, n = 3, read-out: TGase (TG1) level, % control) was determined as 82%; in assay [1] (Homo sapiens, Keratinocyte, Table 8A, 2.5 × 10^-7 M, n = 3, read-out: TGase, % control), 82%; with Human keratinocytes (Homo sapiens, Keratinocyte, 24 h, Table 3A, RA 2.5 × 10^-9 M, RP 2.5 × 10^-7 M, linoleoyl-DEA 10^-8 M, alone or combined, n = 3, read-out: thymidine incorporation, % control), 111%. For the same compound, the activity at 2.5 µM stood at 95% in assay [1] (Homo sapiens, Keratinocyte, Table 8A, 2.5 × 10^-6 M, n = 3, read-out: TGase, % control) and 52% in assay [1] (Homo sapiens, Keratinocyte, Table 8B, 2.5 × 10^-6 M, n = 3, read-out: TGase, % control). For the same compound, the activity at 0.025 µM in assay [1] (Homo sapiens, Keratinocyte, Table 8A, 2.5 × 10^-8 M, n = 3, read-out: TGase, % control) amounted to 82%. The activity at 0.0025 µM in assay [1] (Homo sapiens, Keratinocyte, Table 8A, 2.5 × 10^-9 M, n = 3, read-out: TGase, % control) is 76%. Besides, the activity at 0.00025 µM in assay [1] (Homo sapiens, Keratinocyte, Table 8B, 2.5 × 10^-10 M, n = 3, read-out: TGase, % control) turned out to be 108%. Also, the “mean TGase ± s.d” value in assay [1] (Table 3B, RA, RP 2.5 × 10^-7 M, linoleoyl-DEA 10^-6 M, alone or combined, n = 3) is 0.177 ± 0.026; in assay [1] (Table 8A, 2.5 × 10^-6 M, n = 3), 0.206 ± 0.034; in assay [1] (Table 8A, 2.5 × 10^-7 M, n = 3), 0.177 ± 0.026; in assay [1] (Table 8A, 2.5 × 10^-8 M, n = 3) it was 0.177 ± 0.054; in assay [1] (Table 8A, 2.5 × 10^-9 M, n = 3), 0.165 ± 0.030; in assay [1] (Table 8B, 2.5 × 10^-6 M, n = 3), 0.063 ± 0.019. Besides, the “mean TGase ± s.d” value in assay [1] (Table 8B, 2.5 × 10^-10 M, n = 3) was found to be 0.132 ± 0.038. Besides, the “mean Thymidine incorp./μg protein ± s.d” value with Human keratinocytes (Table 3A, RA 2.5 × 10^-9 M, RP 2.5 × 10^-7 M, linoleoyl-DEA 10^-8 M, alone or combined, n = 3) is listed as 1884 ± 64 DPM/μg protein. The “effect on keratinocyte proliferation, in words” value in the assay on Human keratinocytes is recorded as “increased keratinocyte thymidine incorporation over the control”.

On to `CCCCC/C=C\C/C=C\CCCCCCCC(=O)NCCO` [linoleoyl-MEA, linoleoyl-monoethanolamide], for which the activity at 0.001 µM in the assay on Human keratinocytes (Homo sapiens, Keratinocyte, 24 h, alone or combined, 24 h, n = 3, read-out: thymidine incorporation, % control) was determined as 67%; in the assay on Human keratinocytes (Homo sapiens, Keratinocyte, 24 h, alone or combined, 24 h, normalized to ethanol control, n = 3, read-out: mean Thymidine incorp./μg protein ± s.d), 67 ± 18%. The “effect on keratinocyte proliferation, in words” value with Human keratinocytes is listed as “inhibitory effect on keratinocyte proliferation”.

For `CCCCCCCCCCCCCCCC(=O)NCCO` [palmitoyl-MEA, palmitoyl-monoethanolamide], the activity at 1 µM in the assay on Human keratinocytes (Homo sapiens, Keratinocyte, 24 h, alone or combined, n = 3, read-out: thymidine incorporation, % control) was determined as 97%; with Human keratinocytes (Homo sapiens, Keratinocyte, alone or combined, control = 1.000, n = 3, read-out: mean Thymidine incorp./μg protein ± s.d) it was 97.4 ± 8%. In addition, in the assay on Human keratinocytes, the “effect on keratinocyte proliferation, in words” value is “Neither 10^-8 M palmitoyl-MEA nor 2.5×10^-8 M retinol had an effect on keratinocyte proliferation”.

Values taken from US5599548A, “Skin care compositions containing fatty acid amides and retinol or retinyl ester” (priority 1995, dated 1997).
